Assay [1] can be described thus: urokinase use to open occluded or low-flowing tunneled catheters / clotting of catheters in dialysis unit. It is filed as in vivo, human patients. The following applies: satellite outpatient hospital unit, Jan 1998-May 1999.
The next assay deals with bacteremia. Briefly: monthly incidence of bacteremia in outpatient hemodialysis unit by catheter lock solution. Format: in vivo, human patients.

Take heparin: in assay [1], the “urokinase use” value is on record as “remained low”. Also, the “incidence of bacteremia, percent of patients in the unit per month” value in the assay with bacteremia (RTC unit, 70 patients, about 60% with tunneled catheters, heparin Jan-Jul 1998, citrate locks Sep 1998-Jul 1999, 47% citrate May-Jul 1999) amounted to 4.6%. Further, the “incidence of bacteremia, all other months” value in the assay on bacteremia (satellite outpatient hospital unit, 20 ESRD patients, Jan 1998-May 1999) is listed as “zero”. Besides, the “incidence of bacteremia, percent of all patients, the one month with a case” value in the assay with bacteremia (satellite outpatient hospital unit, 20 ESRD patients, Jan 1998-May 1999, one patient in one month) turned out to be 5%.

Values taken from patent publication US20050215978A1, “Method of enhancing catheter patency using a citrate salt catheter lock solution” (priority 2001, published 2005).
